Measured values: ChEMBL document CHEMBL3612057, “Discovery of indolizines containing triazine moiety as new leads for the development of antitumoral agents targeting mitotic events” (2015)
Calls of active or inactive are those of the source. No cut-off for these calls is given here.

Key:
SNB-75 = test: Cytotoxicity against human SNB75 cells assessed as growth inhibition at 10 uM after 24 hrs by SRB assay; assay type: functional; details: SNB-75, 24 h, read-out: GI
SK-MEL-5 = test: Cytotoxicity against human SK-MEL-5 cells assessed as growth inhibition at 10 uM after 24 hrs by SRB assay; assay type: functional
U-251 = test: Cytotoxicity against human U251 cells assessed as growth inhibition at 10 uM after 24 hrs by SRB assay; assay type: functional
K562 = test: Cytotoxicity against human K562 cells assessed as growth inhibition at 10 uM after 24 hrs by SRB assay; assay type: functional
OVCAR-3 = test: Cytotoxicity against human OVCAR3 cells assessed as growth inhibition at 10 uM after 24 hrs by SRB assay; assay type: functional; details: OVCAR-3, 24 h, read-out: GI
RXF 393 = test: Cytotoxicity against human RXF393 cells assessed as growth inhibition at 10 uM after 24 hrs by SRB assay; assay type: functional; details: RXF 393, 24 h, read-out: GI
HL-60(TB) = test: Cytotoxicity against human HL-60(TB) cells assessed as growth inhibition at 10 uM after 24 hrs by SRB assay; assay type: functional
HCT-116 = test: Cytotoxicity against human HCT116 cells assessed as growth inhibition at 10 uM after 24 hrs by SRB assay; assay type: functional
SR = test: Cytotoxicity against human SR cells assessed as growth inhibition at 10 uM after 24 hrs by SRB assay; assay type: functional
MDA-MB-231 = test: Cytotoxicity against human MDA-MB-231 cells assessed as growth inhibition at 10 uM after 24 hrs by SRB assay; assay type: functional; details: MDA-MB-231, 24 h, read-out: GI
SK-MEL-28 = test: Cytotoxicity against human SK-MEL-28 cells assessed as growth inhibition at 10 uM after 24 hrs by SRB assay; assay type: functional; details: SK-MEL-28, 24 h, read-out: GI
[1] = Cytotoxicity against human Hs578T cells assessed as growth inhibition at 10 uM after 24 hrs by SRB assay; assay type: functional; details: Hs-578T, read-out: GI
CAKI-1 = test: Cytotoxicity against human CAKI-1 cells assessed as growth inhibition at 10 uM after 24 hrs by SRB assay; assay type: functional; details: CAKI-1, 24 h, read-out: GI
CCRF-CEM = test: Cytotoxicity against human CCRF-CEM cells assessed as growth inhibition at 10 uM after 24 hrs by SRB assay; assay type: functional
OVCAR-4 = test: Cytotoxicity against human OVCAR4 cells assessed as growth inhibition at 10 uM after 24 hrs by SRB assay; assay type: functional; details: OVCAR-4, 24 h, read-out: GI
NCI-H522 = test: Cytotoxicity against human NCI-H522 cells assessed as growth inhibition at 10 uM after 24 hrs by SRB assay; assay type: functional
NCI-H226 = test: Cytotoxicity against human NCI-H226 cells assessed as growth inhibition at 10 uM after 24 hrs by SRB assay; assay type: functional; details: NCI-H226, 24 h, read-out: GI
RPMI-8226 = test: Cytotoxicity against human RPMI8226 cells assessed as growth inhibition at 10 uM after 24 hrs by SRB assay; assay type: functional
ACHN = test: Cytotoxicity against human ACHN cells assessed as growth inhibition at 10 uM after 24 hrs by SRB assay; assay type: functional; details: read-out: GI
Malme-3M = test: Cytotoxicity against human MALME-3M cells assessed as growth inhibition at 10 uM after 24 hrs by SRB assay; assay type: functional; details: read-out: GI
PC-3 = test: Cytotoxicity against human PC3 cells assessed as growth inhibition at 10 uM after 24 hrs by SRB assay; assay type: functional; details: PC-3, 24 h, read-out: GI
TK-10 = test: Cytotoxicity against human TK10 cells assessed as growth inhibition at 10 uM after 24 hrs by SRB assay; assay type: functional
UACC-62 = test: Cytotoxicity against human UACC62 cells assessed as growth inhibition at 10 uM after 24 hrs by SRB assay; assay type: functional
NCI-H460 = test: Cytotoxicity against human NCI-H460 cells assessed as growth inhibition at 10 uM after 24 hrs by SRB assay; assay type: functional; details: NCI-H460, 24 h, read-out: GI
HOP-62 = test: Cytotoxicity against human HOP62 cells assessed as growth inhibition at 10 uM after 24 hrs by SRB assay; assay type: functional; details: HOP-62, 24 h, read-out: GI
NCI/ADR-RES = test: Cytotoxicity against human NCI/ADR-RES cells assessed as growth inhibition at 10 uM after 24 hrs by SRB assay; assay type: functional; details: read-out: GI
Ovis aries = species on record: Ovis aries; test: Inhibition of sheep tubulin polymerization at 100 uM by fluorescence assay
SK-OV-3 = test: Cytotoxicity against human SKOV3 cells assessed as growth inhibition at 10 uM after 24 hrs by SRB assay; assay type: functional
SF-539 = test: Cytotoxicity against human SF539 cells assessed as growth inhibition at 10 uM after 24 hrs by SRB assay; assay type: functional
786-0 = test: Cytotoxicity against human 786-0 cells assessed as growth inhibition at 10 uM after 24 hrs by SRB assay; assay type: functional; details: 786-0, 24 h, read-out: GI
SF-295 = test: Cytotoxicity against human SF295 cells assessed as growth inhibition at 10 uM after 24 hrs by SRB assay; assay type: functional; details: SF-295, 24 h, read-out: GI
HOP-92 = test: Cytotoxicity against human HOP92 cells assessed as growth inhibition at 10 uM after 24 hrs by SRB assay; assay type: functional
A549 = test: Cytotoxicity against human A549 cells assessed as growth inhibition at 10 uM after 24 hrs by SRB assay; assay type: functional; details: A549, 24 h, read-out: GI
OVCAR-8 = test: Cytotoxicity against human OVCAR8 cells assessed as growth inhibition at 10 uM after 24 hrs by SRB assay; assay type: functional; details: OVCAR-8, 24 h, read-out: GI
UACC-257 = test: Cytotoxicity against human UACC257 cells assessed as growth inhibition at 10 uM after 24 hrs by SRB assay; assay type: functional; details: UACC-257, 24 h, read-out: GI
MCF7 = test: Cytotoxicity against human MCF7 cells assessed as growth inhibition at 10 uM after 24 hrs by SRB assay; assay type: functional; details: MCF7, 24 h, read-out: GI
T47D = test: Cytotoxicity against human T47D cells assessed as growth inhibition at 10 uM after 24 hrs by SRB assay; assay type: functional; details: read-out: GI
MDA-MB-435 = test: Cytotoxicity against human MDA-MB-435 cells assessed as growth inhibition at 10 uM after 24 hrs by SRB assay; assay type: functional

COc1nc(OC)nc(-c2cc(C(=O)c3ccc(Br)cc3)n3c2ccc2ccccc23)n1
inhibition of growth at 10 µM (SNB-75): 69%
growth inhibition (GI) (SK-MEL-5): inactive
growth inhibition (GI) (U-251): inactive
growth inhibition (GI) (K562): inactive
inhibition of growth at 10 µM (OVCAR-3): 31%
inhibition of growth at 10 µM (RXF 393): 61%
growth inhibition (GI) (HL-60(TB)): inactive
growth inhibition (GI) (HCT-116): inactive
growth inhibition (GI) (SR): inactive
inhibition of growth at 10 µM (MDA-MB-231): 80%
inhibition of growth at 10 µM (SK-MEL-28): 43%
inhibition of growth at 10 µM [1]: 56%
inhibition of growth at 10 µM (CAKI-1): 33%
growth inhibition (GI) (CCRF-CEM): inactive
inhibition of growth at 10 µM (OVCAR-4): 30%
growth inhibition (GI) (NCI-H522): inactive
inhibition of growth at 10 µM (NCI-H226): 35%
growth inhibition (GI) (RPMI-8226): inactive
inhibition of growth at 10 µM (ACHN): 22%
inhibition of growth at 10 µM (Malme-3M): 58%
inhibition of growth at 10 µM (PC-3): 37%
growth inhibition (GI) (TK-10): inactive
growth inhibition (GI) (UACC-62): inactive
inhibition of growth at 10 µM (NCI-H460): 68%
inhibition of growth at 10 µM (HOP-62): 79%
inhibition of growth at 10 µM (NCI/ADR-RES): 43%
inhibition (Ovis aries): inactive
growth inhibition (GI) (SK-OV-3): inactive
growth inhibition (GI) (SF-539): inactive
inhibition of growth at 10 µM (786-0): 45%
inhibition of growth at 10 µM (SF-295): 59%
growth inhibition (GI) (HOP-92): inactive
inhibition of growth at 10 µM (A549): 49%
inhibition of growth at 10 µM (OVCAR-8): 50%
inhibition of growth at 10 µM (UACC-257): 30%
inhibition of growth at 10 µM (MCF7): 44%
inhibition of growth at 10 µM (T47D): 31%
growth inhibition (GI) (MDA-MB-435): inactive
